Source: US6127342A, “Method for preventing or treating a lung disease caused by active oxygen and free radical injury” (Teijin Limited, priority 1991, dated 2000)

What was measured:
Assay type in all cases: in vivo
[1] = tested on: liver ischemia-reperfusion model using rats; assay: Liver lipid peroxide concentration (thiobarbiturate method); settings: rat; 50 mg/kg i.v.; after 1 hour reperfusion
Procedure: Male Wister rats weighing 250-300 g were fasted with free access to water 24 hours before the experiment. Seventy-two rats were divided into three groups of 24 animals each, i.e., the control group, the GSH administration group and the γ-GCE-administration group. Each rat was anesthetized by intraperitoneal administration of 40 mg/0.8 ml/kg of sodium pentobarbital, and the femoral vein was cannulated. In the GSH group and the γ-GCE group, 50 mg/kg of GSH or γ-GCE respectively were administered intravenously. Physiological saline was then infused for volume replacement in each group, as a continuous intravenous infusion at a rate of 0.8 ml/hr with an injection pump throughout the experiment. Thirty minutes after starting injection of physiological saline, the abdomon was opened by a midline incision and the liver hilus was exposed. […]
Evaluation of ischemia-reperfusion injury was performed by measuring liver tissue (1) mitochondrial function, (2) glutathione concentration, (3) adenine nucleotides concentration, and (4) lipid peroxide concentration, as well as liver tissue derived (5) adenine nucleotides concentration in the hepatic vein immediately after starting reperfusion, and (6) liver cell enzyme activities in the blood after 1 hour of reperfusion. More specifically, the mitochondrial function in (1) was measured according to the method described by Chance, et al. in Adv. […]

[2] = tested on: cardiac muscle mitochondria; assay: Glutathione content of cardiac muscle mitochondria after coronary ischemia-reperfusion; settings: dog; for effect on reduction of mitochondrial glutathione during reperfusion / Glutathione content of cardiac muscle mitochondria, GSH + GSSG, normal area / Glutathione content of cardiac muscle mitochondria, GSH, normal area / Glutathione content of cardiac muscle mitochondria, GSSG, normal area / Glutathione content of cardiac muscle mitochondria, GSH + GSSG, ischemic or reperfused area / Glutathione content of cardiac muscle mitochondria, GSH, ischemic or reperfused area / Glutathione content of cardiac muscle mitochondria, GSSG, ischemic or reperfused area: 10 mg/kg i.v. just before reperfusion; for Glutathione content of cardiac muscle mitochondria, GSH + GSSG, normal area / Glutathione content of cardiac muscle mitochondria, GSH, normal area / Glutathione content of cardiac muscle mitochondria, GSSG, normal area / Glutathione content of cardiac muscle mitochondria, GSH + GSSG, ischemic or reperfused area / Glutathione content of cardiac muscle mitochondria, GSH, ischemic or reperfused area / Glutathione content of cardiac muscle mitochondria, GSSG, ischemic or reperfused area: 2 h ischemia / 1 h reperfusion
Procedure: After anesthetizing 52 adult mongrel dogs of either sex weighing ca. 10 kg by intraperitoneal administration of 50 mg/kg of sodium pentobarbital, breathing tubes were immediately intubated endotracheally and artificial ventilation was continued using a Harvard ventilator. Electrocardiogram electrodes were attached, and monitoring and recording were continued throughout the experiment. Following insertion of cannulas in the right femoral vein and right femoral artery, the cannulas were used for continuous intravenous drip of physiological saline to replenish water or administration of the test preparation, and monitoring of arterial blood pressure, respectively. After performing left thoracotomy in the fourth or fifth intercostal space, the pericardium was torn to expose the heart. Ischemia was induced by ligating the left anterior descending coronary artery immediately distal to the first diagonal branch, while reperfusion was performed by subsequently removing that ligation.
The animals were divided into four groups. Group 1 (n=9) was subjected to ischemia for 2 hours, group 2 (n=17) was subjected to ischemia for 2 hours followed by reperfusion for 1 hour, group 3 (n=10) was subjected to ischemia for 2 hours followed by reperfusion for 1 hour plus intravenous injection of 10 mg/kg of γ-GCE just before reperfusion, and group 4 (n=16) was subjected to 2 hours of ischemia followed by 1 hour of reperfusion plus intravenous injection of 10 mg/kg of reduced glutathione (GSH, control drug) just before reperfusion.
Evaluation of ischemia-reperfusion injury was performed, following completion of ischemia-reperfusion, by measuring (1) glutathione content of mitochondria, and (2) mitochondrial function, and so on, at the ischemic or reperfused area and the normal area of the heart. Mitochondria was obtained by removing the heart immediately after the end of ischemia or reperfusion, washing with cold physiological saline, promptly cutting out the ischemic or reperfused area and the normal area, and immediately performing preparation from the respective area according to the method described by Hatefi, et al. in Arch. Biochem. Biophys., Vol. 94, pp. 148-155, 1961.
The glutathione content of the mitochondria was measured by applying the method described by Tietze in Anal. Biochem., Vol. 27, pp. 502-522, 1969 to the supernatant obtained by immediately adding 1/10 vol of 27.5% (w/v) sulfosalicylic acid dihydrate aqueous solution to the prepared mitochondria suspension followed by protein denaturation and centrifugation. Evaluation of mitochondrial function was performed according to the method described by Sugiyama, et al. in Am. Heart J., Vol. 100, pp. 829-837, 1980, by polarographically measuring respiratory ability using an oxygen electrode and determining the rate of oxygen consumption is state III (St. III O2) and the respiratory control index (RCI).

[3] = tested on: liver ischemia-reperfusion model using rats; assay: Adenine nucleotides concentration in liver tissue during liver ischemia-reperfusion; settings: rat, 50 mg/kg i.v.; for effect on restoration of liver ATP following reperfusion: 1 hour reperfusion
Procedure: (§1) Male Wister rats weighing 250-300 g were fasted with free access to water 24 hours before the experiment. Seventy-two rats were divided into three groups of 24 animals each, i.e., the control group, the GSH administration group and the γ-GCE-administration group. Each rat was anesthetized by intraperitoneal administration of 40 mg/0.8 ml/kg of sodium pentobarbital, and the femoral vein was cannulated. In the GSH group and the γ-GCE group, 50 mg/kg of GSH or γ-GCE respectively were administered intravenously. Physiological saline was then infused for volume replacement in each group, as a continuous intravenous infusion at a rate of 0.8 ml/hr with an injection pump throughout the experiment. Thirty minutes after starting injection of physiological saline, the abdomon was opened by a midline incision and the liver hilus was exposed. According to the method described by Hasselgren, et al. in J. Surg. Res., Vol. 34, pp. 409-414, 1984, all vessels to the left and median lobes of the liver, more specifically, hepatic artery, portal vein and the bile duct, were clamped to produce an ischemic state for 2 hours. Since blood vessels to the remaining parts of the liver were not occluded by this method, poral stasis could be avoided which was of special relevance for circulation stability in rats. Thereafter, occlusion of all vessels was released by removing the clamp to allow reperfusion for 1 hour. The abdominal walls were closed during ischemia and reperfusion.
(§2) Using 18 rats in each group, the livers of 6 animals from each group were removed before ischemia, after 2 hours of ischemia, and after 1 hour of reperfusion, respectively. A portion of the liver from each animal was rapidly frozen in liquid nitrogen and used for measurement of glutathione,adenine nucleotides and lipid peroxide. From the remaining portion of the liver, mitochondria was immediately extracted according to the method described by Hogeboom and Schneider in the J. Biol. Chem., Vol. 172, p. 619, 1948. In other experiments, immediately after starting reperfusion, blood from the hepatic vein was collected using 6 rats from each group. These blood samples were then used to measure leaked adenine nucleotides. In addition, after 1 hour of said reperfusion, blood samples were also drawn, which were then used to measure the activity of the leaked liver cell enzymes.
(§3) Evaluation of ischemia-reperfusion injury was performed by measuring liver tissue (1) mitochondrial function, (2) glutathione concentration, (3) adenine nucleotides concentration, and (4) lipid peroxide concentration, as well as liver tissue derived (5) adenine nucleotides concentration in the hepatic vein immediately after starting reperfusion, and (6) liver cell enzyme activities in the blood after 1 hour of reperfusion. More specifically, the mitochondrial function in (1) was measured according to the method described by Chance, et al. in Adv. Enzymol., Vol. 17, p. 65, 1956. In addition, the quantitative determination of glutathione in (2) was performed using the same method as Experiment 1 on supernatant obtained by adding 10 vol/g of tissue weight of 2.5% (w/v) sulfosalicylic acid dihydrate aqueous solution to the liver tissue followed by homogenization and centrifugation. In addition, the quantitative determination of adenine nucleotides in (3) was performed by neutralizing the perchloric acid extract of the liver tissue with potassium hydroxide followed by removal of the precipitate and applying to an ion exchange HPLC column according to the method described by Sugino, et al. in J. Chromatogr., Vol. 361, pp. 427-431, 1986. In addition, the measurement of lipid peroxide in (4) was performed according to the thiobarbiturate method described by Ohkawa, et al. in Anal. Biochem., Vol. 95, p. 351, 1979. […]

[4] = tested on: liver ischemia-reperfusion model using rats; assay: Serum AST, ALT and LDH after 1 hour of reperfusion; settings: rat; 50 mg/kg i.v.
Procedure: as §1, §2, §3

CCOC(=O)[C@H](CS)NC(=O)CC[C@H](N)C(=O)O [γ-GCE, γ-L-glutamyl-L-cysteine ethyl ester]
Concentration of liver lipid peroxide following reperfusion [1]: 6.56±0.6 nmol/mg protein
effect on reduction of mitochondrial glutathione during reperfusion [2]: significantly suppress further reduction of glutathione during the reperfusion
mitochondrial glutathione levels (GSH, GSH+GSSG) of reperfused area relative to normal area after reperfusion ([2]; 10 mg/kg just before reperfusion): 85-88%
Glutathione content of cardiac muscle mitochondria, GSH + GSSG, normal area [2]: 4.06 ± 0.52
Glutathione content of cardiac muscle mitochondria, GSH, normal area [2]: 3.68 ± 0.54
Glutathione content of cardiac muscle mitochondria, GSSG, normal area [2]: 0.38 ± 0.09
Glutathione content of cardiac muscle mitochondria, GSH + GSSG, ischemic or reperfused area [2]: 3.57 ± 0.46
Glutathione content of cardiac muscle mitochondria, GSH, ischemic or reperfused area [2]: 3.12 ± 0.40
Glutathione content of cardiac muscle mitochondria, GSSG, ischemic or reperfused area [2]: 0.45 ± 0.15
effect on restoration of liver ATP following reperfusion [3]: significantly promoted restoration of ATP following reperfusion
effect on the reduction of liver ATP caused by ischemia ([3]; 2 hours ischemia): did not show any effects on the reduction of ATP caused by ischemia
Liver tissue ADP, after 1 hour reperfusion [3]: 0.38 μmol/g wet liver weight
Liver tissue AMP, after 1 hour reperfusion [3]: 0.12 μmol/g wet liver weight
Liver tissue ATP + ADP + AMP, after 1 hour reperfusion [3]: 2.21 μmol/g wet liver weight
Liver tissue ATP, after 1 hour reperfusion [3]: 1.70 μmol/g wet liver weight
Liver tissue ADP, after 2 hours ischemia [3]: 0.17 μmol/g wet liver weight
Liver tissue AMP, after 2 hours ischemia [3]: 0.87 μmol/g wet liver weight
Liver tissue ATP + ADP + AMP, after 2 hours ischemia [3]: 1.10 μmol/g wet liver weight
Liver tissue ATP, after 2 hours ischemia [3]: 0.06 μmol/g wet liver weight
Liver tissue ADP, before ischemia [3]: 0.57 μmol/g wet liver weight
Liver tissue AMP, before ischemia [3]: 0.13 μmol/g wet liver weight
Liver tissue ATP + ADP + AMP, before ischemia [3]: 3.39 μmol/g wet liver weight
Liver tissue ATP, before ischemia [3]: 2.69 μmol/g wet liver weight
Serum ALT after 1 hour of reperfusion [4]: 924 ± 330 IU/L
Serum AST after 1 hour of reperfusion [4]: 2071 ± 625 IU/L
Serum LDH after 1 hour of reperfusion [4]: 14678 ± 2763 IU/L
effect on leakage of liver cell enzymes into the blood following 1 hour of reperfusion [4]: significantly reduced leakage of enzymes from liver cells

N[C@@H](CCC(=O)N[C@@H](CS)C(=O)NCC(=O)O)C(=O)O [GSH, reduced glutathione, reference compound]
Concentration of liver lipid peroxide following reperfusion [1]: 9.1±2.0 nmol/mg protein
effect on reduction of mitochondrial glutathione during reperfusion [2]: no such effects were observed
Glutathione content of cardiac muscle mitochondria, GSH + GSSG, normal area [2]: 3.94 ± 0.33
Glutathione content of cardiac muscle mitochondria, GSH, normal area [2]: 3.67 ± 0.37
Glutathione content of cardiac muscle mitochondria, GSSG, normal area [2]: 0.27 ± 0.08
Glutathione content of cardiac muscle mitochondria, GSH + GSSG, ischemic or reperfused area [2]: 2.44 ± 0.57
Glutathione content of cardiac muscle mitochondria, GSH, ischemic or reperfused area [2]: 2.17 ± 0.52
Glutathione content of cardiac muscle mitochondria, GSSG, ischemic or reperfused area [2]: 0.27 ± 0.09
effect on restoration of liver ATP following reperfusion [3]: did not show any promotive effects on the restoration of ATP
Liver tissue ADP, after 1 hour reperfusion [3]: 0.38 μmol/g wet liver weight
Liver tissue AMP, after 1 hour reperfusion [3]: 0.15 μmol/g wet liver weight
Liver tissue ATP + ADP + AMP, after 1 hour reperfusion [3]: 1.66 μmol/g wet liver weight
Liver tissue ATP, after 1 hour reperfusion [3]: 1.13 μmol/g wet liver weight
Liver tissue ADP, after 2 hours ischemia [3]: 0.13 μmol/g wet liver weight
Liver tissue AMP, after 2 hours ischemia [3]: 0.73 μmol/g wet liver weight
Liver tissue ATP + ADP + AMP, after 2 hours ischemia [3]: 0.90 μmol/g wet liver weight
Liver tissue ATP, after 2 hours ischemia [3]: 0.04 μmol/g wet liver weight
Liver tissue ADP, before ischemia [3]: 0.65 μmol/g wet liver weight
Liver tissue AMP, before ischemia [3]: 0.18 μmol/g wet liver weight
Liver tissue ATP + ADP + AMP, before ischemia [3]: 3.40 μmol/g wet liver weight
Liver tissue ATP, before ischemia [3]: 2.57 μmol/g wet liver weight
Serum ALT after 1 hour of reperfusion [4]: 2337 ± 571 IU/L
Serum AST after 1 hour of reperfusion [4]: 3914 ± 1102 IU/L
Serum LDH after 1 hour of reperfusion [4]: 26435 ± 12191 IU/L
effect on leakage of liver cell enzymes into the blood following 1 hour of reperfusion [4]: did not significantly mitigate the leakage
